Source: patent US20260242418A1, “CYCLIC PEPTIDES WITH ANTIBACTERIAL ACTIVITY AGAINST MULTIDRUG RESISTANT (MDR) PATHOGENS” (priority 2022, published 2026)
Read-outs that look alike come from different tables or passages of the source. Positions of bridges follow the written chain, without caps; N, C: chain ends. Non-standard residues stand in square brackets, D forms with d. Residues, ends and D or L forms follow the SMILES beside them. No end group written: not given here. dDab = NCC[C@@H](N)C(=O)O; Orn = NCCC[C@H](N)C(=O)O; Dab = NCC[C@H](N)C(=O)O

Key:
[1] = in vivo, iv; cited from earlier work
human cells = conditions: cited from earlier work
Pseudomonas aeruginosa = assay type: cell-based
Description: (§1) Minimum Inhibitory Concentration (MIC) of a peptide of SEQ D NO: 4 (abbreviated PLP-3) and colistin against a collection of clinically relevant and commercially available bacterial strains was obtained via broth microdilution. The protocol for antimicrobial activity determination, detailed below, consisted in a modification of Clinical & Laboratory Standards Institute (CLSI) Guidelines.
(§2) MIC is the value defined as the lowest concentration of an antimicrobial, in these tests either PLP-3 or colistin, which inhibits the macroscopic growth of a bacterial strain after 18-22 h incubation at 37° C. The results from these assays are obtained via visual identification of the bacterial bottom at the end of the wells of the testing plate. Since the wells contain decreasing concentrations of the compounds, the final result is indicated as a concentration, MIC, expressed in μg/mL of the agent (in this case PLP-3 or colistin).
(§3) Bacterial strains were streaked in Columbia Agar plates (Columbia Agar with 5% Sheep Blood 90 mm Stacker plates, BD) and incubated overnight at 37° C. Polypropylene round bottomed 96-well plates were filled with 50 μL/well of Mueller-Hinton Broth (MHB, CM0405, 500 g, ThermoFisher Scientific™ Oxoid™) and 50 μL of either colistin or PLP-3 (at 4× the chosen initial concentration of the test) were added to the first well of each row of the plate followed by serial dilutions up until the 10th column of the plate.
(§4) Finally, strain inoculums were prepared by diluting 1:100 0.5 McFarland solutions in MHB. Plates were then inoculated with 50 μL of the inoculums and covered with film before 18 to 22 h incubation at 37 C.
(§5) Three biological and three technical replicates were performed per strain.
(§6) Broth microdilution testing of 15 strains of each species provided MIC50 and […] values (Table 4). Strains were either from clinical origin, relevant to current clinical situation, or commercially available strains belonging to the American Type Culture Collection (ATCC), namely: A. baumannii 17978 and 19606, K. pneumoniae 13883 and P. aeruginosa 27853.
(§7) This panel represents an example of relevant MDR, colistin resistant and colistin susceptible strains from which to compare results. The minimum inhibitory concentration (MIC) is the lowest concentration of a chemical, usually a drug, which prevents visible growth of a bacterium or bacteria. MIC50 represents the antimicrobial concentration value that inhibits the growth of 50% of the bacterial strains and […] of each species from the tested panel of strains. Being colistin both a peptide and a last-resource antibiotic, it was included in these assays for comparison against a commercially available antibiotic.
P. aeruginosa ATCC 27853 strain (commercially available from the American Type Collection Culture) was used as control by performing MICs to colistin and PLP-3 in all broth microdilution assays

Acinetobacter baumannii = assay type: cell-based
Description: as §1, §2, §3, §4, §5, §6, §7

Klebsiella pneumoniae = assay type: cell-based
Description: as §1, §2, §3, §4, §5, §6, §7

[2] = panel of 15 P. aeruginosa strains
[3] = panel of 15 A. baumannii strains
[4] = panel of 15 K. pneumoniae strains

With `CC[C@H](C)[C@@H]1NC(=O)[C@H](Cc2c[nH]c3ccccc23)NC(=O)[C@H]([C@@H](C)O)NC(=O)[C@@H]2CCCN2C(=O)[C@H]2CCCN2C(=O)[C@H](CO)NC(=O)[C@H](C)NC(=O)[C@H](CCN)NC(=O)[C@H](CCN)NC(=O)[C@H](Cc2c[nH]c3ccccc23)NC(=O)[C@H](CCN)NC(=O)[C@@H](CCN)NC(=O)[C@H](CCCN)NC(=O)[C@H](CCN)NC1=O` [Murepavadin, cyclo[Ala-Ser-D-Pro-Pro-Thr-Trp-Ile-Dab-Orn-D-Dab-Dab-Trp-Dab-Dab]] (cyclo(TWI[Dab][Orn][dDab][Dab]W[Dab][Dab]AS[dP]P)) as the compound, how does the “adverse finding in phase-III clinical trials” value [1] read?
The value was “kidney damage in over half of the patients”.

For “RGGRLCYCRRRFCVCVGR (disulfide 8-13, 6-15; listed as Sus scrofa) [PG-1]”, which “haemolysis and toxicity against human cells” value (human cells) is on record?
The value was “significant haemolysis and toxicity”.

For colistin [reference compound], which MIC50 (Pseudomonas aeruginosa; [2]) is on record?
Its MIC50 is 0,5 μg/mL.

And the MIC90 (Pseudomonas aeruginosa; [2])?
Its MIC90 is 64 µg/mL.

And the MIC (Pseudomonas aeruginosa; strain 36a)?
The MIC was at most 0.125 µg/mL.

And the MIC (Pseudomonas aeruginosa; strain 38a)?
The MIC was 0.25 µg/mL.

What about the MIC (Pseudomonas aeruginosa; strain ATCC 27853 (Table 2)) of the same compound?
Its MIC is at most 0.125 µg/mL.

What about the MIC (Pseudomonas aeruginosa; strain ATCC 27853, control in the A. baumannii panel (Table 1)) of the same compound?
Its MIC is at most 0.125 µg/mL.

What about the MIC (Pseudomonas aeruginosa; strain ATCC 27853, control in the K. pneumoniae panel (Table 3)) of the same compound?
Its MIC is 0.25 µg/mL.

What about the MIC (Pseudomonas aeruginosa; strain C1) of the same compound?
The MIC was 0.5 µg/mL.

What about the MIC (Pseudomonas aeruginosa; strain C2) of the same compound?
Its MIC is 1 µg/mL.

What about the MIC (Pseudomonas aeruginosa; strain C3) of the same compound?
Its MIC is 0.5 µg/mL.

And the MIC (Pseudomonas aeruginosa; strain C4)?
The MIC was 0.5 µg/mL.

And the MIC (Pseudomonas aeruginosa; strain R1)?
The MIC was over 64 µg/mL.

And the MIC (Pseudomonas aeruginosa; strain R2)?
Its MIC is 64 µg/mL.

And the MIC (Pseudomonas aeruginosa; strain R3* (MDR))?
The MIC was 32 µg/mL.

What about the MIC (Pseudomonas aeruginosa; strain S1) of the same compound?
Its MIC is at most 0.125 µg/mL.

And the MIC (Pseudomonas aeruginosa; strain S2* (MDR))?
The MIC was at most 0.125 µg/mL.

And the MIC (Pseudomonas aeruginosa; strain S3)?
The MIC was 0.5 µg/mL.

And the MIC (Pseudomonas aeruginosa; strain S4)?
Its MIC is at most 0.125 µg/mL.

What about the MIC (Pseudomonas aeruginosa; strain S5) of the same compound?
The MIC was at most 0.125 µg/mL.

And the MIC50 (Acinetobacter baumannii; [3])?
The MIC50 was 0,5 μg/mL.

What about the MIC90 (Acinetobacter baumannii; [3]) of the same compound?
Its MIC90 is 64 µg/mL.

What about the MIC (Acinetobacter baumannii; strain 8* (MDR)) of the same compound?
Its MIC is 0.5 µg/mL.

What about the MIC (Acinetobacter baumannii; strain 19* (MDR)) of the same compound?
The MIC was 0.25 µg/mL.

And the MIC (Acinetobacter baumannii; strain 80* (MDR))?
The MIC was 0.5 µg/mL.

And the MIC (Acinetobacter baumannii; strain 174* (MDR))?
The MIC was 0.25 µg/mL.

And the MIC (Acinetobacter baumannii; strain 180* (MDR))?
Its MIC is 0.5 µg/mL.

And the MIC (Acinetobacter baumannii; strain 210* (MDR))?
The MIC was 8 µg/mL.

What about the MIC (Acinetobacter baumannii; strain 226* (MDR)) of the same compound?
The MIC was 0.25 µg/mL.

What about the MIC (Acinetobacter baumannii; strain 253* (MDR)) of the same compound?
The MIC was 0.25 µg/mL.

And the MIC (Acinetobacter baumannii; strain 317)?
The MIC was 0.25 µg/mL.

What about the MIC (Acinetobacter baumannii; strain 383) of the same compound?
Its MIC is 0.25 µg/mL.

And the MIC (Acinetobacter baumannii; strain 19606)?
The MIC was 0.5 µg/mL.

What about the MIC (Acinetobacter baumannii; strain ATCC 17978) of the same compound?
Its MIC is 0.25 µg/mL.

And the MIC (Acinetobacter baumannii; strain CR17* (MDR))?
The MIC was over 64 µg/mL.

And the MIC (Acinetobacter baumannii; strain CR49)?
Its MIC is 64 µg/mL.

What about the MIC (Acinetobacter baumannii; strain CR86) of the same compound?
The MIC was 64 µg/mL.

And the MIC50 (Klebsiella pneumoniae; [4])?
Its MIC50 is 8 µg/mL.

And the MIC90 (Klebsiella pneumoniae; [4])?
Its MIC90 is over 64 µg/mL.

What about the MIC (Klebsiella pneumoniae; strain 145* (MDR)) of the same compound?
Its MIC is 32 µg/mL.

What about the MIC (Klebsiella pneumoniae; strain 398* (MDR)) of the same compound?
Its MIC is over 64 µg/mL.

And the MIC (Klebsiella pneumoniae; strain 545)?
Its MIC is 0.25 µg/mL.

What about the MIC (Klebsiella pneumoniae; strain 674* (MDR)) of the same compound?
The MIC was 0.25 µg/mL.

And the MIC (Klebsiella pneumoniae; strain 681* (MDR))?
Its MIC is over 64 µg/mL.

And the MIC (Klebsiella pneumoniae; strain 716* (MDR))?
Its MIC is 0.5 µg/mL.

And the MIC (Klebsiella pneumoniae; strain 741* (MDR))?
The MIC was 0.5 µg/mL.

What about the MIC (Klebsiella pneumoniae; strain 851* (MDR)) of the same compound?
Its MIC is 0.5 µg/mL.

And the MIC (Klebsiella pneumoniae; strain 994* (MDR))?
Its MIC is over 64 µg/mL.

And the MIC (Klebsiella pneumoniae; strain 1052* (MDR))?
The MIC was over 64 µg/mL.

What about the MIC (Klebsiella pneumoniae; strain 1078* (MDR)) of the same compound?
Its MIC is 64 µg/mL.

What about the MIC (Klebsiella pneumoniae; strain 1129* (MDR)) of the same compound?
Its MIC is 0.5 µg/mL.

And the MIC (Klebsiella pneumoniae; strain 1478* (MDR))?
Its MIC is over 64 µg/mL.

What about the MIC (Klebsiella pneumoniae; strain 1480* (MDR)) of the same compound?
Its MIC is 0.25 µg/mL.

What about the MIC (Klebsiella pneumoniae; strain ATCC 13883) of the same compound?
The MIC was 1 µg/mL.
